Measurements reported in patent US4705799A, “Aminomethyl oxooxazolidinyl benzenes useful as antibacterial agents” (E. I. Du Pont de Nemours and Company, priority 1985, dated 1987).
In brackets after ≈: the same amount, converted by molar mass.

Key:
Escherichia coli [1] = test: In vitro broth dilution minimal inhibitory concentration (standard microdilution method); type: cell-based; conditions: Escherichia coli, Mueller-Hinton broth, 24-hour; for MIC: read-out: Microdilution Broth MIC
Staphylococcus aureus [2] = test: In vivo efficacy of compounds administered subcutaneously in mouse intraperitoneal infections; conditions: sc, 168 h; mouse i.p. Staphylococcus aureus infection; subcutaneous; dosed at infection and 4 h post-infection; 7 days; read-out: ED50 (50 percent effective dose)
Procedure: (§1) Determinations of in vivo efficacy are performed by inoculating mice intraperitoneally with cultures of the infecting organism diluted to produce 90-100% mortality in control animals within twenty-four hours. The diluents used were trypticase soy broth for E. coli and 5% aqueous hog gastric mucin for Staphylococcus aureus infections. The compounds are dissolved or suspended in 0.25% aqueous Methocel® (Methocel®: Hydroxypropyl Methylcellulose E15 Premium, Dow Chemical Company) for oral administration or sterile distilled water containing 5% dimethylsulfoxide (Fisher Scientific Company, Fairlawn, N.J.) for subcutaneous administration. The mice are dosed at the time of infection and again at four hours post-infection. Mortality is recorded daily until test termination seven days post infection and the 50 percent effective dose, ED50, is calculated by the Reed-Muench method (Reed, L. G. and Muench, H., "A simple method of estimating fifty percent end points," American Journal of Hygiene, 27, 493-497 (1938).

Escherichia coli [3] = test: In vivo efficacy of orally administered compounds in mouse intraperitoneal infections; conditions: mouse i.p. Escherichia coli infection, oral, dosed at infection and 4 h post-infection, 7 days; for ED50: 168 h, read-out: ED50 (50 percent effective dose)
Procedure: as §1

Staphylococcus aureus [4] = test: as above; conditions: mouse i.p. Staphylococcus aureus infection, oral, dosed at infection and 4 h post-infection, 7 days; for ED50: Staphylococcus aureus, po, 168 h, read-out: ED50 (50 percent effective dose)
Procedure: as §1

[5] = system: Staphylococcus epidermidis; test: In vitro broth dilution minimal inhibitory concentration (standard microdilution method); type: cell-based; conditions: Mueller-Hinton broth, 24-hour; for MIC: 24 h, read-out: Microdilution Broth MIC

Row | Compound | MIC (Escherichia coli [1]) | ED50 (Staphylococcus aureus [2]) | ED50 (Escherichia coli [3]) | ED50 (Staphylococcus aureus [4]) | MIC [5] | Microdilution Broth MIC (Escherichia coli [1]) | ED50 (50 percent effective dose) (Escherichia coli [3]) | ED50 (50 percent effective dose) (Staphylococcus aureus [4]; 10080 min) | Microdilution Broth MIC [5]
1 | COC(=O)NCC1CN(c2ccc(SC(C)=O)cc2)C(=O)O1 (single isomer, unassigned) [Example 155] | > 200 µg/mL | < 4.4 mg/kg | 82.2 mg/kg | 3 mg/kg | > 200 µg/mL | – | – | – | –
2 | CS(=O)(=O)c1ccc(N2CC(CN=[N+]=[N-])OC2=O)cc1 (single isomer, unassigned) [Example 2, (l)-5-Azidomethyl-3-[4-(methylsulfonyl)phenyl]-2-oxazolidinone] | > 100 µg/mL | – | 52.6 mg/kg | 7.3 mg/kg | 6.3 µg/mL (≈ 21.3 µM) | – | – | – | –
3 | CC(=O)NCC1CN(c2ccc(S(C)(=O)=O)cc2)C(=O)O1 (single isomer, unassigned) [Example 23, (l)-N-[3-[4-(Methylsulfonyl)phenyl]-2-oxooxazolidin-5-ylmethyl]acetamide] | 25 µg/mL (≈ 80 µM) | – | 14 mg/kg | 3.3 mg/kg | 3.2 µg/mL (≈ 10.2 µM) | – | – | – | –
4 | CSc1ccc(N2CC(CNC=O)OC2=O)cc1 (centres unmarked) [Example 89] | > 200 µg/mL | – | > 138 mg/kg | 11 mg/kg | 25 µg/mL (≈ 93.9 µM) | – | – | – | –
5 | COC(=O)NCC1CN(c2ccc(Cl)cc2)C(=O)O1 (centres unmarked) [Example 84] | > 128 µg/mL | 80.5 mg/kg | > 120 mg/kg | 79.2 mg/kg | > 128 µg/mL | – | – | – | –
6 | C=CC(=O)NCC1CN(c2ccc(S(C)(=O)=O)cc2)C(=O)O1 (centres unmarked) [Example 69] | 150 µg/mL (≈ 462 µM) | – | 65.7 mg/kg | 11.9 mg/kg | 9.4 µg/mL (≈ 29 µM) | – | – | – | –
7 | CS(=O)(=O)c1ccc(N2CC(CN)OC2=O)cc1 (single isomer, unassigned) [Example 11, (l)-5-Aminomethyl-3-[4-(methylsulfonyl)phenyl]-2-oxazolidinone] | > 100 µg/mL | 16.4 mg/kg | 47.4 mg/kg | 29.9 mg/kg | > 100 µg/mL | – | – | – | –
8 | C=CC(=O)NCC1CN(c2ccc(C(C)=O)cc2)C(=O)O1 (centres unmarked) [Example 96] | > 50 µg/mL | – | 83.2 mg/kg | 7.9 mg/kg | 12.5 µg/mL (≈ 43.4 µM) | – | – | – | –
9 | C[S+]([O-])c1ccc(N2CC(CNC=O)OC2=O)cc1 (centres unmarked) [Example 90] | > 200 µg/mL | – | 98.4 mg/kg | 11.3 mg/kg | 25 µg/mL (≈ 88.6 µM) | – | – | – | –
10 | [N-]=[N+]=NCC1CN(c2ccc(S(N)(=O)=O)cc2)C(=O)O1 (single isomer, unassigned) [Example 3, (l)-4-[5-(Azidomethyl)-2-oxooxazolidin-3-yl]benzenesulfonamide] | > 100 µg/mL | – | > 120 mg/kg | 29.3 mg/kg | 25 µg/mL (≈ 84.1 µM) | – | – | – | –
11 | CON=C(C)c1ccc(N2CC(CNC(C)=O)OC2=O)cc1 (single isomer, unassigned) [Example 160, (l)-N-[3-(4-Acetylphenyl)-2-oxooxazolidin-5-ylmethyl]acetamide Oxime, methyl ether] | > 200 µg/mL | < 4.4 mg/kg | – | < 4.4 mg/kg | 12.5 µg/mL (≈ 40.9 µM) | – | – | – | –
12 | CC(C)c1ccc(N2CC(CNC(=O)CN)OC2=O)cc1 (racemic) [Example 157, (dl)-2-Amino-N-[3-[4-(1-methylethyl)phenyl]-2-oxooxazolidin-5-ylmethyl]acetamide] | > 200 µg/mL | 19.6 mg/kg | – | 58.9 mg/kg | 50 µg/mL (≈ 172 µM) | – | – | – | –
13 | CS(=O)(=O)c1ccc(N2CC(CNC(=O)c3ccccc3)OC2=O)cc1 (centres unmarked) [Example 34] | > 200 µg/mL | 49.6 mg/kg | – | > 120 mg/kg | 25 µg/mL (≈ 66.8 µM) | – | – | – | –
14 | CC(=O)NCC1CN(c2ccc(C(F)(F)C(F)(F)F)cc2)C(=O)O1 (centres unmarked) [Example 108] | > 128 µg/mL | 20.4 mg/kg | – | 8.4 mg/kg | 2 µg/mL (≈ 5.68 µM) | – | – | – | –
15 | CC(=O)NCC1CN(c2ccc(C(=O)C=CN(C)C)cc2)C(=O)O1 (single isomer, unassigned) [Example 162] | > 128 µg/mL | 20.9 mg/kg | – | 11.3 mg/kg | 32 µg/mL (≈ 96.6 µM) | – | – | – | –
16 | CC(=O)NC[C@H]1CN(c2ccc([S@@+](C)[O-])cc2)C(=O)O1 [Example 180] | 128 µg/mL (≈ 432 µM) | 0.8 mg/kg | – | 2.5 mg/kg | 4 µg/mL (≈ 13.5 µM) | – | – | – | –
17 | CC(=O)NC[C@H]1CN(c2ccc([S@+](C)[O-])cc2)C(=O)O1 [Example 181, (S,S)-N-[3-[4-(Methylsulfinyl)phenyl]-2-oxo-5-oxazolidinylmethyl]acetamide] | > 128 µg/mL | 1 mg/kg | – | 2.8 mg/kg | 16 µg/mL (≈ 54 µM) | – | – | – | –
18 | CC(C)c1ccc(N2CC(CN)OC2=O)cc1 (centres unmarked) [Example 17] | > 200 µg/mL | 24.9 mg/kg | – | > 120 mg/kg | > 200 µg/mL | – | – | – | –
19 | CC(C)c1ccc(N2CC(CN=[N+]=[N-])OC2=O)cc1 (centres unmarked) [Example 7] | > 200 µg/mL | 33.7 mg/kg | – | 24.2 mg/kg | 100 µg/mL (≈ 384 µM) | – | – | – | –

Row | Compound | MIC (Escherichia coli [1]) | ED50 (Staphylococcus aureus [2]) | ED50 (Escherichia coli [3]) | ED50 (Staphylococcus aureus [4]) | MIC [5] | Microdilution Broth MIC (Escherichia coli [1]) | ED50 (50 percent effective dose) (Escherichia coli [3]) | ED50 (50 percent effective dose) (Staphylococcus aureus [4]; 10080 min) | Microdilution Broth MIC [5]
20 | COC(=O)NCC1CN(c2ccc(C(F)(F)F)cc2)C(=O)O1 (centres unmarked) [Example 42] | > 200 µg/mL | 20.9 mg/kg | – | 45.5 mg/kg | 100 µg/mL (≈ 314 µM) | – | – | – | –
21 | CSc1ccc(N2CC(CNC(=O)C3CC3)OC2=O)cc1 (centres unmarked) [Example 71] | > 200 µg/mL | 69.3 mg/kg | – | > 120 mg/kg | 50 µg/mL (≈ 163 µM) | – | – | – | –
22 | CS(=O)(=O)c1ccc(N2CC(CNC=O)OC2=O)cc1 (single isomer, unassigned) [Example 21, (l)-N-[3-[4-(Methylsulfonyl)phenyl]-2-oxooxazolidin-5-ylmethyl]formamide] | 100 µg/mL (≈ 335 µM) | – | 30.3 mg/kg | 7.3 mg/kg | 6.3 µg/mL (≈ 21.1 µM) | – | – | – | –
23 | C=Cc1ccc(N2CC(CNC(C)=O)OC2=O)cc1 (centres unmarked) [Example 101] | 128 µg/mL (≈ 492 µM) | 4.8 mg/kg | – | 10.6 mg/kg | 4 µg/mL (≈ 15.4 µM) | – | – | – | –
24 | CC(=O)NCC1CN(c2ccc(C#N)cc2)C(=O)O1 (centres unmarked) [Example 59] | > 200 µg/mL | – | 88 mg/kg | 4.3 mg/kg | 100 µg/mL (≈ 386 µM) | – | – | – | –
25 | CC(=O)NCC1CN(c2ccc(CCCO)cc2)C(=O)O1 (centres unmarked) [Example 107] | > 128 µg/mL | 18.6 mg/kg | – | > 60 mg/kg | 2 µg/mL (≈ 6.84 µM) | – | – | – | –
26 | COC(=O)N(C)CC1CN(c2ccc(S(C)(=O)=O)cc2)C(=O)O1 (centres unmarked) [Example 128] | > 200 µg/mL | 33.6 mg/kg | – | 62 mg/kg | > 200 µg/mL | – | – | – | –
27 | COC(=O)NCC1CN(c2ccc(C(C)C)cc2)C(=O)O1 (centres unmarked) [Example 52] | – | – | – | – | – | > 200.0 µg/mL | > 120.0 mg/kg | 4.9 mg/kg | 6.3 µg/mL
28 | CC(=O)NCC1CN(c2ccc3c(c2)OCO3)C(=O)O1 (centres unmarked) [Example 62] | > 200 µg/mL | – | > 120 mg/kg | 19.1 mg/kg | 50 µg/mL (≈ 180 µM) | – | – | – | –
29 | CC(=O)c1ccc(N2CC(CN=[N+]=[N-])OC2=O)cc1 (centres unmarked) [Example 5] | > 200 µg/mL | 41.2 mg/kg | – | 172 mg/kg | 200 µg/mL (≈ 768 µM) | – | – | – | –
30 | CC(=O)NCC1CN(c2ccc(NC(C)=O)cc2)C(=O)O1 (single isomer, unassigned) [Example 150, (l)-N-[3-[4-(Acetylamino)phenyl]-2-oxooxazolidin-5-ylmethyl]acetamide] | > 200 µg/mL | 12.5 mg/kg | – | 56.9 mg/kg | 200 µg/mL (≈ 687 µM) | – | – | – | –
31 | COC(=O)NCC1CN(c2ccc(S(=O)(=O)N(C)OC)cc2)C(=O)O1 (centres unmarked) [Example 116] | > 200 µg/mL | 14.9 mg/kg | – | 25.9 mg/kg | 12.5 µg/mL (≈ 33.5 µM) | – | – | – | –
32 | CC(=O)NCC1CN(c2ccc(C(C)(O)CO)cc2)C(=O)O1 (centres unmarked) [Example 102] | > 128 µg/mL | 9 mg/kg | – | 24 mg/kg | 16 µg/mL (≈ 51.9 µM) | – | – | – | –
33 | CCC(=O)NCC1CN(c2ccc(S(C)(=O)=O)cc2)C(=O)O1 (centres unmarked) [Example 27] | 50 µg/mL (≈ 153 µM) | – | 37 mg/kg | 8 mg/kg | 6.3 µg/mL (≈ 19.3 µM) | – | – | – | –
34 | CC(=O)Cc1ccc(N2CC(CNC(C)=O)OC2=O)cc1 (centres unmarked) [Example 99] | > 200 µg/mL | 20.1 mg/kg | – | 77.4 mg/kg | 25 µg/mL (≈ 86.1 µM) | – | – | – | –
35 | CC(=O)NCC1CN(c2ccc(SCCO)cc2)C(=O)O1 (single isomer, unassigned) [Example 167, (l)-N-[3-[4-(2-Hydroxyethylthio)phenyl]-2-oxooxazolidin-5-ylmethyl]acetamide] | > 200 µg/mL | 10.8 mg/kg | – | 68.2 mg/kg | 3.1 µg/mL (≈ 9.99 µM) | – | – | – | –
36 | COC(=O)NCC1CN(c2ccc([S+](C)[O-])cc2)C(=O)O1 (single isomer, unassigned) [Example 121, (l)-N-[3-[4-(Methylsulfinyl)phenyl]-2-oxooxazolidin-5-ylmethyl]carbamic acid, methyl ester] | > 200 µg/mL | – | 55.9 mg/kg | 2.5 mg/kg | 18.8 µg/mL (≈ 60.2 µM) | – | – | – | –
37 | CC(=O)NCC1CN(c2ccc(C(C)C)cc2)C(=O)O1 (single isomer, unassigned) [Example 51, (l)-N-[3-(4-isopropylphenyl)-2-oxooxazolidin-5-ylmethyl]acetamide] | > 200 µg/mL | – | 62.9 mg/kg | 6.4 mg/kg | 3.1 µg/mL (≈ 11.2 µM) | – | – | – | –
38 | NCC1CN(c2ccc(S(N)(=O)=O)cc2)C(=O)O1 (single isomer, unassigned) [Example 12, (l)-4-[5-(Aminomethyl)-2-oxooxazolidin-3-yl]benzenesulfonamide] | > 100 µg/mL | 89.8 mg/kg | – | 179 mg/kg | > 100 µg/mL | – | – | – | –
